From US9808003B2, “Herbicidally active 2-(substituted-phenyl)-cyclopentane-1,3-dione compounds and derivatives thereof” (Syngenta Limited, priority 2013, dated 2017)

How the values were obtained:
Assay in all cases: Test 1A glasshouse assay, post-emergence herbicidal activity
Type in all cases: in vivo
[1] = tested on: Alopecurus myosuroides (ALOMY); conditions: application rate 250 g/ha, 13 days after application, visual (100%=total damage; 0%=no damage); for pest or weed control at 250 g/ha: Alopecurus myosuroides, 312 h, read-out: Post-emergence Herbicidal Activity (% Phytotoxicity) ALOMY
Experimental: (§1) Seeds of a variety of test species were sown in standard soil in pots. After cultivation for one day (pre-emergence) or after 8 days cultivation (post-emergence) under controlled conditions in a glasshouse (at 24/16° C., day/night; 14 hours light; 65% humidity), the plants were sprayed with an aqueous spray solution derived from the formulation of the technical active ingredient in acetone/water (50:50) solution containing 0.5% Tween 20 (polyoxyethelyene sorbitan monolaurate, CAS RN 9005-64-5). The test plants were then grown under controlled conditions in a glasshouse (at 24/16° C., day/night; 14 hours light; 65% humidity) and watered twice daily. 13 days after application of the test herbicide, for pre- and post-emergence, the test was evaluated visually for percentage phytotoxicity to the plant (where 100%=total damage to plant; 0%=no damage to plant).
(§2) Lolium perenne (LOLPE), Alopecurus myosuroides (ALOMY), Echinochloa crus-galli (ECHCG), and Avena fatua (AVEFA); these are all grassy monocotyledonous weeds.

Lolium perenne (LOLPE) = conditions: application rate 250 g/ha, 13 days after application, visual (100%=total damage; 0%=no damage); for pest or weed control at 250 g/ha: Lolium perenne, 312 h, read-out: Post-emergence Herbicidal Activity (% Phytotoxicity) LOLPE
Experimental: as §1, §2

Avena fatua (AVEFA) = conditions: application rate 250 g/ha, 13 days after application, visual (100%=total damage; 0%=no damage); for pest or weed control at 250 g/ha: Avena fatua, 312 h, read-out: Post-emergence Herbicidal Activity (% Phytotoxicity) AVEFA
Experimental: as §1, §2

[2] = tested on: Echinochloa crus-galli (ECHCG); conditions: application rate 250 g/ha, 13 days after application, visual (100%=total damage; 0%=no damage); for pest or weed control at 250 g/ha: Echinochloa crus-galli, 312 h, read-out: Post-emergence Herbicidal Activity (% Phytotoxicity) ECHCG
Experimental: as §1, §2

| Compound | pest or weed control at 250 g/ha [1] | pest or weed control at 250 g/ha (Lolium perenne (LOLPE)) | pest or weed control at 250 g/ha (Avena fatua (AVEFA)) | pest or weed control at 250 g/ha [2] | Post-emergence Herbicidal Activity (% Phytotoxicity) ALOMY [1] | Post-emergence Herbicidal Activity (% Phytotoxicity) LOLPE (Lolium perenne (LOLPE)) | Post-emergence Herbicidal Activity (% Phytotoxicity) AVEFA (Avena fatua (AVEFA)) | Post-emergence Herbicidal Activity (% Phytotoxicity) ECHCG [2] |
| --- | --- | --- | --- | --- | --- | --- | --- | --- |
| Cc1cc(C)c(C2C(=O)CC(CCNC(=O)c3nc(C)sc3C)C2=O)c(C)c1 (stereo not shown) [Compound A182] | 80% | 80% | 90% | 90% | – | – | – | – |
| Cc1cc(-c2ccc(Cl)cn2)cc(C)c1C1C(=O)CC(CCNC(=O)c2ccccn2)C1=O (stereo not shown) [Compound A38] | 100% | 100% | 100% | 100% | – | – | – | – |
| Cc1cc(C)c(C2C(=O)CC(CCNC(=O)c3c(C)noc3C)C2=O)c(C)c1 (stereo not shown) [Compound A179] | 70% | 70% | 100% | 80% | – | – | – | – |
| Cc1cc(C)c(C2C(=O)CC(CCNC(=O)c3nc(Cl)sc3C)C2=O)c(C)c1 (stereo not shown) [Compound A143] | 90% | 100% | 90% | 100% | – | – | – | – |
| CC#Cc1cc(C)c(C2C(=O)CC(CCNC(=O)C(C)(C)C)C2=O)c(C)c1 (stereo not shown) [Compound A115] | 100% | 100% | 100% | 100% | – | – | – | – |
| Cc1cc(C)c(C2C(=O)CC(CCNC(=O)c3sc(C)nc3C(F)F)C2=O)c(C)c1 (stereo not shown) [Compound A183] | 60% | 90% | 60% | 90% | – | – | – | – |
| Cc1cc(C)c(C2C(=O)CC(CCNC(=O)c3nc(Cl)ccc3Cl)C2=O)c(C)c1 (stereo not shown) [Compound A39] | 100% | 100% | 100% | 100% | – | – | – | – |
| Cc1cc(C)c(C2C(=O)CC(CCNC(=O)c3ncccc3N)C2=O)c(C)c1 (stereo not shown) [Compound A41] | 70% | 70% | 70% | 60% | – | – | – | – |
| O=C(NCCC1CC(=O)C(c2c(Cl)cc(-c3ccc(F)cc3)cc2Cl)C1=O)c1ccccn1 (stereo not shown) [Compound A106] | 90% | 100% | 100% | 100% | – | – | – | – |
| Cc1cc(C)c(C2C(=O)CC(CCNC(=O)c3nc(C)ncc3Br)C2=O)c(C)c1 (stereo not shown) [Compound A78] | 80% | 60% | 80% | 80% | – | – | – | – |
| Cc1cc(C)c(C2C(=O)CC(CCNC(=O)c3cnc(C)cn3)C2=O)c(C)c1 (stereo not shown) [Compound A56] | 100% | 100% | 90% | 90% | – | – | – | – |
| Cc1cc(-n2cc(Cl)cn2)cc(C)c1C1C(=O)CC(CCNC(=O)c2ccc(Cl)cn2)C1=O (stereo not shown) [Compound A155] | 100% | 100% | 100% | 100% | – | – | – | – |
| Cc1cc(C)c(C2C(=O)CC(CCNC(=O)c3cccn3C)C2=O)c(C)c1 (stereo not shown) [Compound A58] | 50% | 80% | 30% | 50% | – | – | – | – |
| COc1ccccc1C(=O)NCCC1CC(=O)C(c2c(C)cc(C)cc2C)C1=O (stereo not shown) [Compound A11] | 70% | 100% | 70% | 100% | – | – | – | – |
| COc1cc(OC)nc(C(=O)NCCC2CC(=O)C(c3c(C)cc(C)cc3C)C2=O)n1 (stereo not shown) [Compound A69] | 50% | 60% | 70% | 30% | – | – | – | – |
| Cc1cc(C)c(C2C(=O)CC(CCNC(=O)c3ccc(C#N)cn3)C2=O)c(C)c1 (stereo not shown) [Compound A57A] | – | – | – | – | 100% | 90% | 90% | 90% |
| Cc1cc(-n2cc(Cl)cn2)cc(C)c1C1C(=O)CC(CCNC(=O)c2nc(Br)ccc2F)C1=O (stereo not shown) [Compound A191] | 100% | 90% | 100% | 100% | – | – | – | – |
| Cc1cc(C)c(C2C(=O)CC(CCNC(=O)c3nn(C)nc3C)C2=O)c(C)c1 (stereo not shown) [Compound A54] | 100% | 100% | 100% | 60% | – | – | – | – |
| Cc1cc(C)c(C2C(=O)CC(CCNC(=O)c3ccc4ccccc4n3)C2=O)c(C)c1 (stereo not shown) [Compound A27] | 80% | 70% | 90% | 100% | – | – | – | – |
| C#Cc1cc(C)c(C2C(=O)CC(CCNC(=O)c3ccccn3)C2=O)c(CC)c1 (stereo not shown) [Compound A85, N-[2-[3-(2-ethyl-4-ethynyl-6-methyl-phenyl)-2,4-dioxo-cyclopentyl]ethyl]pyridine-2-carboxamide] | 90% | 100% | 100% | 100% | – | – | – | – |
| Cc1cc(C)c(C2C(=O)CC(CCNC(=O)c3ncccc3F)C2=O)c(C)c1 (stereo not shown) [Compound A96] | 100% | 100% | 100% | 100% | – | – | – | – |
| Cc1cc(C)c(C2C(=O)CC(CCNC(=O)c3cc(C(F)(F)F)nn3C)C2=O)c(C)c1 (stereo not shown) [Compound A173] | 100% | 100% | 100% | 100% | – | – | – | – |
| CCC(CC1CC(=O)C(c2c(C)cc(C)cc2C)C1=O)NC(=O)c1ccc(F)cc1 (stereo not shown) [Compound A21] | 90% | 100% | 90% | 100% | – | – | – | – |
| Cc1cc(C)c(C2C(=O)CC(CCNC(=O)C(F)c3ccccc3)C2=O)c(C)c1 (stereo not shown) [Compound A50] | 20% | 100% | 70% | 70% | – | – | – | – |
| Cc1cc(C)c(C2C(=O)CC(CCNC(=O)c3cccc(C#N)n3)C2=O)c(C)c1 (stereo not shown) [Compound A147] | 60% | 70% | 60% | 60% | – | – | – | – |
| Cc1cc(-n2cc(Cl)cn2)cc(C)c1C1=C(OS(=O)(=O)c2ccc(F)cc2)CC(CCNC(=O)c2ccccn2)C1=O (stereo not shown) [Compound P16] | 100% | 100% | 90% | 100% | – | – | – | – |
| CCOCOC1=C(c2c(C)cc(C)cc2C)C(=O)C(CCNC(=O)c2ccc(Br)cn2)C1 (stereo not shown) [Compound P20] | 100% | 100% | 100% | 100% | – | – | – | – |
| Cc1cc(-n2cc(Cl)cn2)cc(C)c1C1C(=O)CC(CCNC(=O)c2cc(Cl)ccn2)C1=O (stereo not shown) [Compound A138] | 100% | 100% | 90% | 100% | – | – | – | – |
